Laboratory results reported in patent US12098148B2, “Therapeutic compounds” (C4X Discovery Limited, priority 2018, dated 2024).
Like-named read-outs stand apart in the source and are kept apart here.

Columns and labels:
[1] = test system: NQO1 mRNA in BEAS-2B cells; assay: Beas2B NQO1 mRNA cell based assay; parameters: species or system human; settings: Homo sapiens, BEAS-2B
Experimental: Beas2B NQO1 mRNA Cell Based Assay
The up regulation of the NRF2 mediated gene NAD(P)H:quinone acceptor oxidoreductase 1 (NQO1) was measured using the following assay method: BEAS-2B cells (ATCC CRL-9609) were plated in 96-well clear plates at 20,000 cells/well in 75 μL of cell culture media and incubated overnight (37° C., 5% CO2). On day 2, 25 μL of compound or controls were added to the cells for 24 h. On day 3, the medium was aspirated from the plate and the Cells-to-CT™ 1-Step TaqMan® Kit (Ambion A25603) was used to perform expression analysis directly from cultured cells without RNA purification according to the manufacturer's instructions.
Briefly, cells were washed with ice cold PBS and 22.5 μL of room-temperature DNase/Lysis solution was added to the cells and incubated at room temperature for 5 minutes. To stop the reaction, 2.25 μL of stop solution was added to the cell lysate. The samples were diluted 1:5 using nuclease free water and 2.5 μL transferred into the PCR plate. Real-time PCR was performed using the C-1000 Thermal Cycler (Bio-Rad) using human beta actin as the internal control. The cDNA was amplified with a specific primer for NQO1 using the 1-step RT-PCR master mix (Ambion Cells-to-CT™ 1-Step TaqMan® Kit A25603). The primers/probes sets that were used for amplification of cDNA were obtained from TaqMan Gene Expression Assays (Applied Biosystems). The comparative CT (ΔΔCT) relative quantification method was used to calculate the relative mRNA level of the target gene NQO1 as described in the Applied Biosystems Chemistry Guide.

[2] = target: human KEAP1 (N-term, residues 321-609) (Homo sapiens, UniProt Q14145); assay: biochemical;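 further: fluorescence polarization competition assay of Kelch domain binding to NRF2, 12-point 1:3 dilution series from 10 µM, read after 1 h at room temperature, floor 10 nM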
Chain of human KEAP1 (N-term, residues 321-609) (Q14145 321-609): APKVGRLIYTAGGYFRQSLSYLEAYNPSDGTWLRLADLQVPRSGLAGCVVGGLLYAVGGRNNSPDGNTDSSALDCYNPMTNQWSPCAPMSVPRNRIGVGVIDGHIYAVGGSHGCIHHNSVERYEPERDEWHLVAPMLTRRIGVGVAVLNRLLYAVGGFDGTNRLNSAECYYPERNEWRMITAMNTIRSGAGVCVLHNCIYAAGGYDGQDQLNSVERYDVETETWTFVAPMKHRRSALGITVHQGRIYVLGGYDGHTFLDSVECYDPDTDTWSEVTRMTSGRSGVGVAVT

[3] = 24 h, 24 h compound treatment, increase in NQO1 mRNA vs vehicle (0.1% DMSO), read-out: EC50

IC50 [2]	Compound	EC50 [1, 3]	EC50 ([1]; NQO1 mRNA, on one test occasion, read-out: EC50 on one test occasion (footnote to Table 5))
6.2 nM	Cc1ncc(C(=O)N2CC[C@H](Oc3cccc4c3[C@@H](CN3C(=O)c5ccccc5C3=O)N(C(=O)[C@@H]3CCCC[C@@H]3C(=O)O)CC4)C2)s1 [Example 7, (1S,2R)-2-((S)-1-((1,3-dioxoisoindolin-2-yl)methyl)-8-(((S)-1-(2-methylthiazole-5-carbonyl)pyrrolidin-3-yl)oxy)-1,2,3,4-tetrahydroisoquinoline-2-carbonyl)cyclohexane-1-carboxylic acid]	48 nM	
8.2 nM	Cn1nnc2cc(COc3cccc4c3[C@@H](CN3C(=O)c5ccccc5C3=O)N(C(=O)[C@@H]3CCCC[C@@H]3C(=O)O)CC4)ccc21 [Example 8, (1S,2R)-2-((S)-1-((1,3-Dioxoisoindolin-2-yl)methyl)-8-((1-methyl-1H-benzo[d][1,2,3]triazol-5-yl)methoxy)-1,2,3,4-tetrahydroisoquinoline-2-carbonyl)cyclohexane-1-carboxylic acid]	48 nM	
7.7 nM	Cn1cc(COc2cccc3c2[C@@H](CN2C(=O)c4ccccc4C2=O)N(C(=O)[C@@H]2CCCC[C@@H]2C(=O)O)CC3)nn1 [Example 9, (1S,2R)-2-((S)-1-((1,3-dioxoisoindolin-2-yl)methyl)-8-((1-methyl-1H-1,2,3-triazol-4-yl)methoxy)-1,2,3,4-tetrahydroisoquinoline-2-carbonyl)cyclohexane-1-carboxylic acid]	24 nM	
15 nM	Cn1cnc2cc(COc3cccc4c3[C@@H](CN3C(=O)c5ccccc5C3=O)N(C(=O)[C@@H]3CCCC[C@@H]3C(=O)O)CC4)ccc21 [Example 10, (1S,2R)-2-((S)-1-((1,3-dioxoisoindolin-2-yl)methyl)-8-((1-methyl-1H-benzo[d]imidazol-5-yl)methoxy)-1,2,3,4-tetrahydroisoquinoline-2-carbonyl)cyclohexane-1-carboxylic acid]	140 nM	> 500 nM
9.7 nM	CC(C)n1cc(COc2cccc3c2[C@@H](CN2Cc4ccccc4C2=O)N(C(=O)[C@@H]2CCCC[C@@H]2C(=O)O)CC3)nn1 [Example 17, (1S,2R)-2-((S)-8-((1-Isopropyl-1H-1,2,3-triazol-4-yl)methoxy)-1-((1-oxoisoindolin-2-yl)methyl)-1,2,3,4-tetrahydroisoquinoline-2-carbonyl)cyclohexane-1-carboxylic acid]	110 nM	
10 nM	Cn1nnc2cc(COc3cccc4c3[C@@H](CN3Cc5ccccc5C3=O)N(C(=O)[C@@H]3CCCC[C@@H]3C(=O)O)CC4)ccc21 [Example 18, (1S,2R)-2-((S)-8-((1-methyl-1H-benzo[d][1,2,3]triazol-5-yl)methoxy)-1-((1-oxoisoindolin-2-yl)methyl)-1,2,3,4-tetrahydroisoquinoline-2-carbonyl)cyclohexane-1-carboxylic acid]	73 nM	

Further lines, the molecule ahead of its results:

Compound	IC50 [2]	EC50 [1, 3]	EC50 ([1]; NQO1 mRNA, on one test occasion, read-out: EC50 on one test occasion (footnote to Table 5))
O=C(O)[C@H]1CCCC[C@H]1C(=O)N1CCc2c(Br)ccc(O[C@H]3CCN(C(=O)c4cncs4)C3)c2[C@H]1CN1C(=O)c2ccccc2C1=O [Example 5, (1S,2R)-2-((S)-5-bromo-1-((1,3-dioxoisoindolin-2-yl)methyl)-8-(((S)-1-(thiazole-5-carbonyl)pyrrolidin-3-yl)oxy)-1,2,3,4-tetrahydroisoquinoline-2-carbonyl)cyclohexane-1-carboxylic acid]	6.1 nM	2.5 nM	
O=C(O)[C@H]1CCCC[C@H]1C(=O)N1CCc2cccc(O[C@H]3CCN(C(=O)c4cncs4)C3)c2[C@H]1CN1C(=O)c2ccccc2C1=O [Example 6, (1S,2R)-2-((S)-1-((1,3-dioxoisoindolin-2-yl)methyl)-8-(((S)-1-(thiazole-5-carbonyl)pyrrolidin-3-yl)oxy)-1,2,3,4-tetrahydroisoquinoline-2-carbonyl)cyclohexane-1-carboxylic acid]	5.6 nM	78 nM	
CC(=O)N1CC[C@H](Oc2ccc(Br)c3c2[C@@H](CN2C(=O)c4ccccc4C2=O)N(C(=O)[C@@H]2CCCC[C@@H]2C(=O)O)CC3)C1 [Example 11, (1S,2R)-2-((S)-8-(((S)-1-Acetylpyrrolidin-3-yl)oxy)-5-bromo-1-((1,3-dioxoisoindolin-2-yl)methyl)-1,2,3,4-tetrahydroisoquinoline-2-carbonyl)cyclohexane-1-carboxylic acid]	5.1 nM	3.5 nM	
CC(=O)N1CC[C@H](Oc2ccc(Cl)c3c2[C@@H](CN2C(=O)c4ccccc4C2=O)N(C(=O)[C@@H]2CCCC[C@@H]2C(=O)O)CC3)C1 [Example 12, (1S,2R)-2-((S)-8-(((S)-1-Acetylpyrrolidin-3-yl)oxy)-5-chloro-1-((1,3-dioxoisoindolin-2-yl)methyl)-1,2,3,4-tetrahydroisoquinoline-2-carbonyl)cyclohexane-1-carboxylic acid]	5.8 nM	8.6 nM	
CC(=O)N1CC[C@H](Oc2c(Cl)cc(Cl)c3c2[C@@H](CN2C(=O)c4ccccc4C2=O)N(C(=O)[C@@H]2CCCC[C@@H]2C(=O)O)CC3)C1 [Example 13, (1S,2R)-2-((S)-8-(((S)-1-Acetylpyrrolidin-3-yl)oxy)-5,7-dichloro-1-((1,3-dioxoisoindolin-2-yl)methyl)-1,2,3,4-tetrahydroisoquinoline-2-carbonyl)cyclohexane-1-carboxylic acid]	8.5 nM	530 nM	
O=C(O)[C@H]1CCCC[C@H]1C(=O)N1CCc2c(Cl)ccc(O[C@H]3CCN(C(=O)c4cncs4)C3)c2[C@H]1CN1C(=O)c2ccccc2C1=O [Example 14, (1S,2R)-2-((S)-5-chloro-1-((1,3-dioxoisoindolin-2-yl)methyl)-8-(((S)-1-(thiazole-5-carbonyl)pyrrolidin-3-yl)oxy)-1,2,3,4-tetrahydroisoquinoline-2-carbonyl)cyclohexane-1-carboxylic acid]	3.7 nM	2.9 nM	
O=C(O)[C@H]1CCCC[C@H]1C(=O)N1CCc2cccc(O[C@H]3CCN(C(=O)c4cncs4)C3)c2[C@H]1CN1Cc2ccccc2C1=O [Example 15, (1S,2R)-2-((S)-1-((1-Oxoisoindolin-2-yl)methyl)-8-(((S)-1-(thiazole-5-carbonyl)pyrrolidin-3-yl)oxy)-1,2,3,4-tetrahroisoquinoline-2-carbonyl)cyclohexane-1-carboxylic acid]	5.1 nM	850 nM	
O=C(O)[C@H]1CCCC[C@H]1C(=O)N1CCc2c(Br)ccc(OCc3nnc4ccccn34)c2[C@H]1CN1Cc2ccccc2C1=O [Example 16, (1S,2R)-2-((S)-8-([1,2,4]triazolo[4,3-a]pyridin-3-ylmethoxy)-5-bromo-1-((1-oxoisoindolin-2-yl)methyl)-1,2,3,4-tetrahydroisoquinoline-2-carbonyl)cyclohexane-1-carboxylic acid]	8.1 nM	2 nM	
CC(=O)N1CC[C@H](Oc2ccc(Br)c3c2[C@@H](CN2Cc4ccccc4C2=O)N(C(=O)[C@@H]2CCCC[C@@H]2C(=O)O)CC3)C1 [Example 19, (1S,2R)-2-((S)-8-(((S)-1-acetylpyrrolidin-3-yl)oxy)-5-bromo-1-((1-oxoisoindolin-2-yl)methyl)-1,2,3,4-tetrahydroisoquinoline-2-carbonyl)cyclohexane-1-carboxylic acid]	9.7 nM	130 nM	
Cc1ncc(C(=O)N2CC[C@H](Oc3ccc(Br)c4c3[C@@H](CN3Cc5ccccc5C3=O)N(C(=O)[C@@H]3CCCC[C@@H]3C(=O)O)CC4)C2)s1 [Example 20, (1S,2R)-2-((S)-5-Bromo-8-(((S)-1-(2-methylthiazole-5-carbonyl)-pyrrolidin-3-yl)oxy)-1-((1-oxoisoindolin-2-yl)methyl)-1,2,3,4-tetrahydroisoquinoline-2-carbonyl)cyclohexane-1-carboxylic acid]	5.4 nM	20 nM	
Cc1cnc(N2CC[C@H](Oc3ccc(Br)c4c3[C@@H](CN3Cc5ccccc5C3=O)N(C(=O)[C@@H]3CCCC[C@@H]3C(=O)O)CC4)C2)s1 [Example 21, (1S,2R)-2-((S)-5-bromo-8-(((S)-1-(5-methylthiazol-2-yl)pyrrolidin-3-yl)oxy)-1-((1-oxoisoindolin-2-yl)methyl)-1,2,3,4-tetrahydroisoquinoline-2-carbonyl)cyclohexane-1-carboxylic acid]	4.7 nM	7.9 nM	
Cc1cnnc(N2CC[C@H](Oc3ccc(Br)c4c3[C@@H](CN3Cc5ccccc5C3=O)N(C(=O)[C@@H]3CCCC[C@@H]3C(=O)O)CC4)C2)c1 [Example 22, (1S,2R)-2-((S)-5-bromo-8-(((S)-1-(5-methylpyridazin-3-yl)pyrrolidin-3-yl)oxy)-1-((1-oxoisoindolin-2-yl)methyl)-1,2,3,4-tetrahydroisoquinoline-2-carbonyl)cyclohexane-1-carboxylic acid]	4.7 nM	15 nM	
